Measurements reported in patent publication EP2216326B1, “Biologically acceptable choline compounds and their use as tensides” (Universität Regensburg, priority 2009, dated 2010).
Like-named read-outs stand apart in the source and are kept apart here.

Tests used:
[1] = cited from earlier work; for TKr (Krafft-Temperatur): literature values of comparison substances, references (1)-(3); for Löslichkeitstemperatur in Wasser: water, literature or background statement
[2] = tested on: HeLa-Zellen; experiment: MTT assay (Mosmann) cytotoxicity on HeLa cells; format: cell-based, human; conditions: 72 h at 37°C, at least 5 independent measurements, high values mean low toxicity
Excerpt: (§1) Die Zytotoxizität und Hautverträglichkeit von ChDS im Vergleich zu anderen gängigen anionischen Tensiden wurden mittels in-vitro Tests an HeLa-Zellen (humane Gebärmutterhalskrebszellen) und SK-MHL 28 Zellen (humane Melanom-Zellen) getestet. Dieses etablierte in vitro Verfahren ist in N. Vlachy, D. Touraud, J. Heilmann, W. Kunz, Colloids and Surfaces B: Biointerfaces, 2009, 70, 278 - 280 beschrieben und bietet eine gute Alternative zu den in vivo Draize-Augenirritationstests.
(§2) Die Zellen wurden von der American Type Culture Collection (ATCC) zur Verfügung gestellt. Die Kultivierung der HeLa-Zellen erfolgte in Earle's minimum essential medium (MEM) mit 0.85 g/l Natriumhydrogencarbonat, zusätzlich versetzt mit fötalem Kälberserum (10%), L-Glutamin (2mM), nichtessentiellen Aminosäuren (1%), Amphotericin B ([…]) und Penicillin G/Streptomycin Sulfat (100u/ml). Die SK - MEL 28 - Zellen wurden in einer 1:1 Mischung aus Dulbecco's MEM mit 4.5 g/l Natriumhydrogencarbonat sowie LGlutamin und Pyrovat und HAM'S F-12 Medium mit 1.176 g/l Natriumhydrogencarbonat und stabilem Glutamin, versetzt mit 10% fötalem Kälberserum, kultiviert.
(§3) Die Inhibitionskonzentration an Testsubstanz, welche zu einer Reduktion an lebenden Zellen um 50% im Vergleich zu einer unbehandelten Kontrolle führt (IC 50), wurde via MTT-Assay nach Mosmann festgestellt.
(§4) Hierzu wurden in der ersten Spalte einer 96-Well-Platte je 15 µl an wässriger Testsubstanzlösung mit 135 µl Medium durchmischt. Je 75 µl dieser Mischung wurden abgenommen und in der zweiten Spalte mit 75 µl Medium verdünnt. Diese Prozedur wurde bis zur vollständigen Füllung der Platte von Spalte zu Spalte wiederholt. Anschließend wurden in jedem Well 11250 Zellen in 75 µl Medium angesät. Die so vorbereiteten Platten wurden 72 Stunden bei 37°C im Brutschrank aufbewahrt.
(§5) Danach wurden 15 µl MTT - Lösung zu jedem Well gegeben und für weitere 4 Stunden inkubiert. Im Anschluss wurde die überstehende Lösung abgetrennt und der reduzierte MTT-Bodensatz jeweils mit 150 µl 10%iger Natrumdodecylsulfat-Lösung versetzt. Nachdem die Platten über Nacht unter Lichtausschluss stehen gelassen wurden, wurde die Absorption der Lösungen bei 560 nm mittels einem TECAN Spectra Fluor Plus microplate reader bestimmt. Nach Mittelung an zwei Einzelmessungen konnte aus den sich ergebenden Dosis-Wirkungskurven der entsprechende IC 50 Wert errechnet werden. Angegebene Werte der Inhibitionskonzentration errechnen sich aus mindestens 5 unabhängigen Messungen.

[3] = tested on: SK-MEL 28-Zellen; experiment: MTT assay (Mosmann) cytotoxicity on SK-MEL 28 cells; format: cell-based, human; conditions: 72 h at 37°C, at least 5 independent measurements, high values mean low toxicity
Excerpt: as §1, §2, §3, §4, §5

[4] = Solubility in organic solvents; format: physicochemical; conditions: Chloroform, Aceton, Acetonitril or Dimethylsulfoxid
[5] = Krafft temperature (solubility temperature of a 1 wt% aqueous solution) by turbidity measurement, with and without added salt; format: physicochemical
Excerpt: Als Maß für die Löslichkeit und Salzempfindlichkeit wurden die Krafft-Punkte in Abwesenheit von Salzen sowie bei unterschiedlichen Salzkonzentrationen herangezogen.
Allgemein kann die Krafft-Temperatur eines Tensids als die Löslichkeitstemperatur einer 1 Gew. %igen Lösung definiert werden, da die CMC generell weit unterhalb dieser Konzentration liegt (R. G. Laughlin, The Aqueous Phase Behavior of Surfactants, Academic Press, San Diego, 1994, p. 108). Dementsprechend wurde zur Bestimmung der Krafft-Temperatur von ChDS eine 1 gew. - %ige Lösung eingewogen. Zur Untersuchung des Einflusses von Salzen auf den Krafft-Punkt wurden 1 gew% - igen Lösungen von ChDS verschiedene Mengen an Natriumchlorid (Merck, p.a.) bzw. Cholinchlorid (Sigma-Aldrich, min. 98%) zugesetzt und die zugehörige Löslichkeitstemperatur gemessen.
Präzise Löslichkeitstemperaturen wurden aus Trübungsmessungen gemäß des in S. Schrödle, R. Buchner, W. Kunz, Fluid Phase Equilib., 2004, 216, 175-182 beschriebenen Verfahrens erhalten. Hierzu wurden alle untersuchten Proben bis zum Auftreten eines Niederschlags abgekühlt und anschließend mit einer Rate von 5°C pro Stunde wieder aufgeheizt.
Die Salzempfindlichkeit wurde durch Messung der Krafft-Temperatur bei unterschiedlichen Salzkonzentrationen untersucht.

[6] = Surface tension of aqueous surfactant solutions, ring method (Krüss Tensiometer K100); format: physicochemical; conditions: 25°C, aqueous solution, value reached starting from ca. 70 mN/m for water (Figur 3)
Protocol: Die Herabsetzung der Grenzflächenspannung von Wasser durch Zugabe an Tensid ist ein wichtiges Maß für die Effizienz eines Tensids. Die Oberflächenspannung von wässrigen ChDS- und SDS- Lösungen wurde anhand der Ringmethode mit einem Krüss Tensiometer K100 vermessen. Figur 3 zeigt die gemessene Grenzflächenspannung bei einer Temperatur von 25°C in Abhängigkeit von der Konzentration.

[7] = tested on: Ratten-Gliom-Zellen; conditions: rat glioma cells, cited from earlier work

Q: With CCCCCCCCCCCC(=O)O [ChCl2, Cholinlaurat] as the compound, how does the “TKr (Krafft-Temperatur)” value [1] read?
A: <0°C^(3)

Q: And the IC50 [2]?
A: 305 ± 6 µM

Q: What about the IC50 [3] of the same compound?
A: 360 ± 10 µM

Q: What does the source list for CCCCCCCCCCCCOS(=O)(=O)O [ChDS, Cholindodecylsulfat]?
A: Löslichkeit in organischen Lösungsmitteln [4]: gut löslich; IC50 ([2]; Homo sapiens, HeLa, 72 h): 404 ± 4 µM; TKr (Krafft-Temperatur) ([5]; 1 wt% aqueous solution, no salt, turbidity measurement): 0 °C; Anstieg der Krafft-Temperatur ([5]; NaCl:surfactant ratio of 1:1, 1 wt% solution (Figur 1, Figur 2)): ~7 °C; in Wasser löslich bis (Temperatur) ([5]; water, found by the applicant): < 0 °C; Grenzflächenspannung von Wasser [6]: ca. 37 mN/m; IC50 ([3]; Homo sapiens, SK-MEL-28, 72 h): 430 ± 20 µM

Q: With C[N+](C)(C)CCO [Cholin, (2-Hydroxyethyl)trimethylammonium] as the compound, how does the “Toxizität geringer im Vergleich zu Tetramethylammonium (TMA), Faktor” value ([7]; factor of lower toxicity versus TMA) read?
A: 5,5

Q: And the “Toxizität geringer im Vergleich zu Tetrabutylammonium, -fach” value ([7]; fold lower toxicity versus tetrabutylammonium)?
A: > 500

Q: Which results are given for CCCCCCCCCCCC(=O)O [KC12, Kaliumlaurat]?
A: TKr (Krafft-Temperatur) [1]: 10°C^(3); IC50 ([2]; Homo sapiens, HeLa, 72 h): 234 ± 5 µM; IC50 ([3]; Homo sapiens, SK-MEL-28, 72 h): 400 ± 10 µM

Q: For CCCCCCCCCCCCOS(=O)(=O)O [KDS, Kaliumdodecylsulfat], which “TKr (Krafft-Temperatur)” value [1] is on record?
A: 40°C^(1)

Q: For CCCCCCCCCCCC(=O)O [NaCl2, Natriumlaurat], which “TKr (Krafft-Temperatur)” value [1] is on record?
A: 25°C^(2)

Q: What about the IC50 [2] of the same compound?
A: 230 ± 10 µM

Q: What about the IC50 [3] of the same compound?
A: 420 ± 10 µM

Q: What does the source list for CCCCCCCCCCCCOS(=O)(=O)O [SDS, Natriumdodecylsulfat]?
A: TKr (Krafft-Temperatur) [1]: 16°C^(1); Löslichkeitstemperatur in Wasser [1]: 12-25 °C; Löslichkeit in organischen Lösungsmitteln [4]: nur geringe Löslichkeit; IC50 [2]: 270 ± 10 µM; Grenzflächenspannung von Wasser [6]: ca. 36 mN/m; IC50 [3]: 320 ± 30 µM

Q: Which “Löslichkeitstemperatur in Wasser” value [1] does the source give for CCCCCCCCCCCCOS(=O)(=O)O [Tetramethylammoniumdodecylsulfat] here?
A: < 0 °C
